{
  "source": "patent US20240109934A1",
  "about": "“ANTIBIOTICS WITH IMPROVED DRUG RESISTANCE PROFILE” (priority 2021, published 2024)",
  "key": {"[1]": {"assay": "Mouse liver microsome stability assay", "assay_type": "in vitro ADME", "settings": "male, CD-1, mouse, microsomes, 3 h, 50 μM, pH 7.4", "procedure": "Mouse Liver Microsome Stability Assay. A mixture of PBS (pH 7.4), NADPH regenerating system solution A (Corning Life Sciences), and NADPH regenerating system solution B (Corning Life Sciences) was incubated at 37° C. in a shaking incubator for 5 min. Next, compound was added in DMSO (final concentration 50 μM, 0.5% DMSO) before ice-cold mouse liver microsomes (Thermo Fisher, male CD-1 mice, pooled) were added (final protein concentration of 1 mg/mL). An aliquot was immediately removed, quenched with an equal volume of 100 μM internal standard and centrifuged at 13,000 rcf for 3 min. The reactions were incubated at 37° C. in a shaking incubator for 3 h. A second aliquot was removed and quenched. Samples were analyzed with the 5500 QTRAP LC/MS/MS system (Sciex, Framingham, MA) in Metabolomics Lab of Roy J. Carver Biotechnology Center, University of Illinois at Urbana-Champaign. Software Analyst 1.6.2 was used for data acquisition and analysis. The 1200 series HPLC system (Agilent Technologies, Santa Clara, CA) includes a degasser, an autosampler, and a binary pump. The LC separation was performed on an Agilent Sb-Aq column (4.6×50 mm, […]) with mobile phase A (0.1% formic acid in water) and mobile phase B (0.1% formic acid in acetonitrile). The flow rate was 0.3 mL/min. The linear gradient was as follows: 0-3 min, 100% A; 10-16 min, 5% A; 16.5-22 min, 100% A. The autosampler was set at 10° C. The injection volume was 1 μL. Mass spectra were acquired under both positive (ion spray voltage was +5500 V) and negative (ion spray voltage was −4500 V) electrospray ionization (ESI). The source temperature was 450° C. The curtain gas, ion source gas 1, and ion source gas 2 were 33, 65, and 60 psi, respectively. Multiple reaction monitoring (MRM) was used for quantitation."}, "[2]": {"test_system": "FA-Resistant strains of S. aureus", "assay": "MIC against 11 FA-resistant strains generated at 4x-32x the MIC", "assay_type": "cell-based", "procedure": "Antimicrobial Susceptibility Tests. Susceptibility testing was performed in biological triplicate, using the micro-dilution broth method as outlined by the Clinical and Laboratory Standards Institute. Bacteria were cultured with cation-adjusted Muller-Hinton broth (Sigma-Aldrich, Cat #90922) in round-bottom 96-well plates (Corning, Cat #3788). Human serum (Ultrafiltrate, unspecified gender, 30K Dalton membrane filtered) was purchased from BioIVT (Hicksville, NY).\nSelection of Resistant Mutants. Resistant mutants were selected via the large inoculum method. Briefly, S. aureus ATCC 29213 (1×10^9 CFU) were plated on 100 mm plates of LB agar containing 4, 2, 1, 0.5, and 0.25 μg/mL.\nSequencing of fusA. FusA was amplified by colony PCR. Colonies were picked and diluted in 100 μL sterile H2O. PCR reactions are setup by combining MiFi Mix (Bioline, London, UK), 20 μM primer mix [fusA-F2, fusA_seq1, Forward EF-G2, and Reverse EF-G](S. aureus ATCC 29213), template DNA, and H2O. Reactions were performed on C1000 Thermal Cycler (Bio-Rad, Hercules, CA) with the following conditions: 5 minutes denaturation at 95° C., followed by 30 cycles of 20 seconds at 95° C., 20 seconds at 50° C., and either 1 minute (fusA1) or 1.5 minutes (fusA2) at 72° C. A 10 μL portion of the PCR reaction mixture was analyzed by agarose gel to confirm the product. PCR reactions were purified using GeneJET PCR Purification Kit (Thermo Scientific). PCR amplicons were submitted to the Core DNA Sequencing Facility at the University of Illinois at Urbana-Champaign for Sanger sequencing with the following primers to sequence the fusA [fusA2, fusA_seq1, Forward EF-G2, Forward EF-G3, Forward EF-G4]"}, "[3]": {"test_system": "multidrug-resistant clinical isolates of S. aureus", "assay": "MIC against multidrug-resistant clinical isolates of S. aureus", "assay_type": "cell-based", "settings": "for MIC: Staphylococcus aureus, read-out: MIC"}, "S. aureus ATCC BAA-1721": {"test_system": "S. aureus ATCC BAA-1721", "assay": "MIC against strain possessing the fusC gene", "assay_type": "cell-based", "settings": "Staphylococcus aureus, ATCCBAA1721"}, "S. aureus ATCC 29213": {"test_system": "S. aureus ATCC 29213", "assay": "Neutropenic thigh infection burden study, sensitive strain", "assay_type": "in vivo", "settings": "neutropenic CD-1 mice, 50 mg/kg IP at 1, 2, 3 h post infection, burden at 24 h"}, "[4]": {"settings": "cited from earlier work"}},
  "note": "Like-named read-outs stand apart in the source and are kept apart here.",
  "data": [
    {"smiles": "CC(=O)O[C@H]1C[C@@]2(C)[C@@H](C[C@@H](O)[C@H]3[C@@]4(C)CC[C@@H](O)[C@@H](C)[C@@H]4CC[C@@]32C)/C1=C(\\CCC=C(C)C)C(=O)O", "note": "[FA, Fusidic acid]", "values": [
      {"measurement": "Metabolic Stability in Mouse Liver Microsomes (percent remaining)", "setting": "[1]", "value": "82 ± 0.8", "unit": "%^"},
      {"measurement": "MIC", "setting": "[2]; Staphylococcus aureus, strain FA-4X-A, EF-G T385N", "value": 8, "unit": "µg/mL"},
      {"measurement": "MIC", "setting": "[2]; Staphylococcus aureus, strain FA-4X-B, EF-G T385N", "value": 8, "unit": "µg/mL"},
      {"measurement": "MIC", "setting": "[2]; Staphylococcus aureus, strain FA-8X-A, EF-G T385N", "value": 8, "unit": "µg/mL"},
      {"measurement": "MIC", "setting": "[2]; Staphylococcus aureus, strain FA-8X-B, EF-G R464L", "value": 16, "unit": "µg/mL"},
      {"measurement": "MIC", "setting": "[2]; Staphylococcus aureus, strain FA-16X-A, EF-G H457Y", "value": 128, "unit": "µg/mL"},
      {"measurement": "MIC", "setting": "[2]; Staphylococcus aureus, strain FA-32X-B, EF-G P406L", "value": 32, "unit": "µg/mL"},
      {"measurement": "MIC", "setting": "[2]; Staphylococcus aureus, strain FA-32X-D, EF-G T436I", "value": 8, "unit": "µg/mL"},
      {"measurement": "MIC", "setting": "[2]; strain FA-32×-B", "value": 32, "unit": "µg/mL"},
      {"measurement": "Cross-resistance with vancomycin", "setting": "[3]; 29 clinical isolates of S. aureus", "value": "no cross-resistance with vancomycin"},
      {"measurement": "MIC", "setting": "[3]; NRS3, S. aureus NRS3 (NARSA)", "value": 0.0625, "unit": "µg/mL"},
      {"measurement": "MIC", "setting": "[3]; NRS4, S. aureus NRS4 (NARSA)", "value": 0.0625, "unit": "µg/mL"},
      {"measurement": "MIC", "setting": "[3]; NRS17, S. aureus NRS17 (NARSA)", "value": 0.0625, "unit": "µg/mL"},
      {"measurement": "MIC", "setting": "[3]; NRS18, S. aureus NRS18 (NARSA)", "value": 0.125, "unit": "µg/mL"},
      {"measurement": "MIC", "setting": "[3]; NRS21, S. aureus NRS21 (NARSA)", "value": 0.0625, "unit": "µg/mL"},
      {"measurement": "MIC", "setting": "[3]; NRS22, S. aureus NRS22 (NARSA)", "value": 0.0625, "unit": "µg/mL"},
      {"measurement": "MIC", "setting": "[3]; NRS23, S. aureus NRS23 (NARSA)", "value": 0.125, "unit": "µg/mL"},
      {"measurement": "MIC", "setting": "[3]; NRS24, S. aureus NRS24 (NARSA)", "value": 0.0625, "unit": "µg/mL"},
      {"measurement": "MIC", "setting": "[3]; NRS26, S. aureus NRS26 (NARSA)", "value": 0.0625, "unit": "µg/mL"},
      {"measurement": "MIC", "setting": "[3]; NRS27, S. aureus NRS27 (NARSA)", "value": 0.125, "unit": "µg/mL"},
      {"measurement": "MIC", "setting": "[3]; NRS29, S. aureus NRS29 (NARSA)", "value": 0.125, "unit": "µg/mL"},
      {"measurement": "MIC", "setting": "[3]; NRS51, S. aureus NRS51 (NARSA)", "value": 0.0625, "unit": "µg/mL"},
      {"measurement": "MIC", "setting": "[3]; NRS68, S. aureus NRS68 (NARSA)", "value": 0.125, "unit": "µg/mL"},
      {"measurement": "MIC", "setting": "[3]; NRS73, S. aureus NRS73 (NARSA)", "value": 0.125, "unit": "µg/mL"},
      {"measurement": "MIC", "setting": "[3]; NRS74, S. aureus NRS74 (NARSA)", "value": 0.125, "unit": "µg/mL"},
      {"measurement": "MIC", "setting": "[3]; NRS76, S. aureus NRS76 (NARSA)", "value": 0.125, "unit": "µg/mL"},
      {"measurement": "MIC", "setting": "[3]; NRS77, S. aureus NRS77 (NARSA), no noted resistance", "value": 0.0625, "unit": "µg/mL"},
      {"measurement": "MIC", "setting": "[3]; NRS382, S. aureus NRS382 (NARSA)", "value": 0.0625, "unit": "µg/mL"},
      {"measurement": "MIC", "setting": "[3]; NRS383, S. aureus NRS383 (NARSA)", "value": 0.125, "unit": "µg/mL"},
      {"measurement": "MIC", "setting": "[3]; NRS384, S. aureus NRS384 (NARSA)", "value": 0.125, "unit": "µg/mL"},
      {"measurement": "MIC", "setting": "[3]; S. aureus AR0561 (CDC)", "value": 0.125, "unit": "µg/mL"},
      {"measurement": "MIC", "setting": "[3]; S. aureus AR0562 (CDC)", "value": 0.125, "unit": "µg/mL"},
      {"measurement": "MIC", "setting": "[3]; S. aureus AR0563 (CDC)", "value": 0.125, "unit": "µg/mL"},
      {"measurement": "MIC", "setting": "[3]; S. aureus AR0564 (CDC)", "value": 0.125, "unit": "µg/mL"},
      {"measurement": "MIC", "setting": "[3]; S. aureus AR0565 (CDC)", "value": 0.0625, "unit": "µg/mL"},
      {"measurement": "MIC", "setting": "[3]; S. aureus AR0566 (CDC)", "value": 0.125, "unit": "µg/mL"},
      {"measurement": "MIC", "setting": "[3]; S. aureus AR0567 (CDC)", "value": 0.125, "unit": "µg/mL"},
      {"measurement": "MIC", "setting": "[3]; S. aureus AR0568 (CDC)", "value": 0.125, "unit": "µg/mL"},
      {"measurement": "MIC", "setting": "[3]; S. aureus AR0570 (CDC)", "value": 0.125, "unit": "µg/mL"},
      {"measurement": "MIC", "setting": "S. aureus ATCC BAA-1721", "value": 8, "unit": "µg/mL"},
      {"measurement": "Bacterial burden in thigh", "setting": "S. aureus ATCC 29213", "value": "Significant reductions in bacterial burden"},
      {"measurement": "Half-life in humans", "setting": "[4]; in vivo", "value": "10 to 14", "unit": "h"},
      {"measurement": "Cmax (drug plasma level)", "setting": "[4]; patients, front-loading regimen 3 g first day, 1.2 g daily thereafter", "value": "greater than 130 μg/mL"}
    ]}
  ]
}
